Measurements published in US20210024499A1, “OXIDIZED BIS(3-INDOLYL)METHANES AND USES THEREOF” (Sanford Burnam Prebys Medical Discovery Institute, priority 2018, published 2021).
Where “and” joins values, the source holds several entries; their conditions need not be identical. Identical values can stand only once.

Columns and labels:
Nur77−/− HeLa cells [1] = assay: Mitochondrial membrane potential (JC1), Nur77 knockout HeLa; type: cell-based; details: 1 μM, 6 h
Protocol: (§1) Loss of mitochondrial membrane potential (Avm) represents one of the hallmarks of apoptosis. A JC-1 probe was employed to measure mitochondrial depolarization in cancer cells. MDA-MB-231 breast cancer cells were treated with different concentration of test compounds for 6 hours. JC-1 staining solution (5 μg/ml) was added at 37° C. for 20 min. After washing with PBS twice, mitochondrial membrane potentials were monitored by determining the relative amounts of dual emission from a multiple fluorescence reader. The fluorescence in cells was quantitatively analyzed by flow cytometry. Mitochondrial depolarization is depicted by an increase in the green/red fluorescence intensity ratio. ROS were monitored with the oxiadtion-senstive fluorescent probe 2′7′-dichlorodihydroflurescenin diacetate (DCF-DA).
(§2) Furthermore, Nur77^−/−HeLa cells were more resistant than the parental HeLa cells to Compound 1 in its induction of the mitochondrial membrane potential loss measured by JC1 staining and in the release of mitochondrial ROS (as performed in Example A-12).

Bcl-2−/−HeLa cells = assay: Mitochondrial membrane potential (JC1), Bcl-2-/- cells of the MEF study; type: cell-based; details: Bcl-2−/−HeLa cells as printed, 0.5 μM, 6 h
Protocol: as §1
(§3) In addition, Bcl-2^−/−MEF cells were more resistant than the parental MEF cells to Compound 1 in its induction of the mitochondrial membrane potential loss measured by JC1 staining and in the release of mitochondrial ROS (as performed in Example A-12).

HeLa cells = assay: PARP cleavage assay (Western blotting), HeLa; type: cell-based; details: 6 hours
Excerpt: (§4) Compound 1a had no effect under the same conditions (FIG. 1A). […] Compound 1a, 28a, 47a, 48a, 73a, 39a, 70a, 103a, 89a and 88a had no effect under the same conditions (FIG. 3B-C).

Nur77−/−HeLa cells [2] = assay: PARP cleavage and caspase 3 activation, Nur77 knockout HeLa; type: cell-based
Protocol: (§5) Knocking out Nur77 and Bcl-2 from HeLa cells employed the CRISPR/Cas9 system. gRNA targeting sequence of Nur77 (5′-[…]-3′) and Bcl-2 (5′-[…]-3′) was cloned into gRNA cloning vector Px330 (Addgene, 71707) and confirmed by sequencing. To screen for cells lacking Nur77 or Bcl-2, HeLa cells were transfected with control vector and gRNA expression vectors, followed by G418 selection (0.5mg/m1). Single colonies were subjected to Western blotting using anti-Nur77 and anti-Bcl-2 antibody to select knockout cells.
(§6) The apoptotic effect of Compound lwas also evaluated in Nur77 genome knockout HeLa cells generated by CRISPR/Cas9 technology (Example A-5).

HCT116 cancer cells [3] = assay: Apoptosis assay, Annexin V-FITC/propidium iodide flow cytometry; type: cell-based; details: Homo sapiens, HCT-116, 6 hours, Annexin V-FITC/PI flow cytometry (Table 4)
Protocol: HCT116 cancer cells plated at a density of 1×10^6 per well on six-well plates were treated with different concentration of test compounds for 6 hours, and then the suspension and the adherent cells were collected, stained with Annexin V-FITC for 15 minutes and with propodium iodide for 5 minutes, and analyzed immediately by cytoFLEX Flow Cytometry System (Beckman-Coulter, Miami, Fla., USA) using FITC and PC5.5 (Table 4).

parental HeLa cells = assay: Annexin V/PI staining, parental HeLa; type: cell-based; details: methanesulfonate
HCT116 cancer cells [4] = assay: Cell viability (MTT) assay, HCT116; type: cell-based; details: Homo sapiens, HCT-116; inhibiting the growth of HCT116 cancer cells, cell viability assay (Table 5)
Protocol: Cell viability was analyzed by using a colorimetric 3-(4,5-dimethylthiazol-[…]2-yl)-2,5-diphenyletetrazolium Bromide (MTT) assay that determines mitochondrial dehydrogenase activities in the living cells with a colorimetric method. Cells treated with test compounds were incubated with MTT and their effect on the viability of the cells was assayed by the ability of treated cells to reduce the yellow tetrazolium dye MTT to its insoluble formazan, which has a purple color. […]

[5] = biological target: T1, Nur77-LBD interaction with GST-Bcl-2 (Homo sapiens, UniProt P22736); assay: GST-pull down of Nur77-LBD by GST-Bcl-2; type: binding; details: in vitro, GST-Bcl-2, FIG. 11
T1 construct: incubated with purified His-Nur77-LBD (0.2 mg) in the presence of Compound 1; made in house
Protocol: GST or GST-Bcl-2 fusion protein (0.5 mg) was immobilized on glutathione-Sepharose beads and incubated with purified His-Nur77-LBD (0.2 mg) in the presence of Compound 1 for 1 hour at room temperature to promote GST-Bcl-2 interaction with His-Nur77-LBD. Bound Nur77-LBD was analyzed by Western blotting.

Nur77-LBD = biological target: T2, Nur77-LBD (Homo sapiens, UniProt P22736); assay: Circular dichroism (CD) binding to Nur77-LBD; details: purified Nur77-LBD, spectra changed at 50° C. and above (FIG. 9)
T2 construct: Protein spectra of purified Nur77-LBD at temperature 50° C. and above changed substantially; His (N); made in house
Protocol: Stock solutions of 100 mM test compound in ethanol were added to 0.5 ml of 1 μM purified His-proteins in PBS, pH 7.6. CD spectra were obtained in a 0.2 cm path length cell at temperature between 25° C. to 65° C. by using an AVIV 62 DS spectropolarimeter for a wavelength range at 220 nm. Three spectra were corrected for background and averaged for each sample. The Kd was determined using nonlinear regression analysis for a one-site binding model (χ2>0.98).

MDA-MB-231 cells [6] = assay: Caspase 3 cleavage assay (Western blotting); type: cell-based; details: 6 hours, Western blotting (FIG. 2)
Bcl-2−/−MEF cells [7] = assay: DAPI staining for apoptosis, Bcl-2-/- MEFs; type: cell-based, mouse; details: 0.5 μM
Excerpt: The apoptotic effect of Compound 1 was also examined in mouse embryonic fibroblast (MEF) and MEF lacking Bcl-2 (Bcl-2^−/−MEF). […] Apoptotic cells were counted in 200 cells.

MDA-MB-231 cells [8] = assay: Flow cytometry-based Annexin V/PI apoptosis assay, MDA-MB-231; type: cell-based; details: 1 μM, 6 hours
Bcl-2−/−MEF cells [9] = assay: Mitochondrial ROS, Bcl-2-/- MEF; type: cell-based, mouse
Protocol: as §1, §3

Nur77−/−HeLa cells [10] = assay: Annexin V/PI staining, Nur77 knockout HeLa; type: cell-based
Protocol: as §5, §6

Nur77−/− HeLa cells [11] = assay: Mitochondrial ROS, Nur77 knockout HeLa; type: cell-based
Protocol: as §1, §2

HCT116 cells = assay: PARP cleavage assay (Western blotting), HCT116; type: cell-based; details: 6 hours
Excerpt: as §4

T2 sequence (P22736 360-595 limits assumed): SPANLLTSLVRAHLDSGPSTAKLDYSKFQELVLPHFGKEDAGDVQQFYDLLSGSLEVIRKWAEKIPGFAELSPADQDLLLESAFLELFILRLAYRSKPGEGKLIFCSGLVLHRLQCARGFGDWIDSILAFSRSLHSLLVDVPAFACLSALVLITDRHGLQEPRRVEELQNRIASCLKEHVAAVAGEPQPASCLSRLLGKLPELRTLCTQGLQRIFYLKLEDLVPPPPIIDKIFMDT
T1 sequence (P22736 360-595 limits assumed): as above
T1 sequence (P10415 whole entry partner, the tested form may be a part): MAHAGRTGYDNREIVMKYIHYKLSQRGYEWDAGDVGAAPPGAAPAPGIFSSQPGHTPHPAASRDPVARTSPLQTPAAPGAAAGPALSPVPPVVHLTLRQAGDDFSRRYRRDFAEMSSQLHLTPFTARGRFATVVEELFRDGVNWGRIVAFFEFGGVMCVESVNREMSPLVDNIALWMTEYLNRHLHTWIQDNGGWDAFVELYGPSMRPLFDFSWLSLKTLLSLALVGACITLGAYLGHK

## FC(F)(F)c1ccc([C+](c2c[nH]c3ccccc23)c2c[nH]c3ccccc23)cc1 [Compound 1, Bis(1H-indol-3-yl)(4-(trifluoromethyl)phenyl)methylium methanesulfonate]
Nur77−/− HeLa cells [1]
  JC1 green to red ratio: no significant change
Bcl-2−/−HeLa cells
  JC1 green to red ratio (control 100%): 150%
HeLa cells
  concentration inducing PARP cleavage (dose dependent study): submicromolar concentrations
Nur77−/−HeLa cells [2]
  induction of PARP cleavage and caspase 3 activation: strongly suppressed
HCT116 cancer cells [3]
  IC50: < 500 nM
Parental HeLa cells
  apoptotic effect (Annexin V/PI staining): 35.55% and 24.59%
HCT116 cancer cells [4]
  IC50: < 500 nM
[5]
  Nur77-LBD pulled down (GST-pull down): concentration dependent manner
Nur77-LBD
  binding to Nur77-LBD (CD spectra): direct binding
MDA-MB-231 cells [6]
  caspase 3 cleavage: dose dependent induction of caspase 3 cleavage
Bcl-2−/−MEF cells [7]
  cells with chromatin condensation and nuclear fragmentation (DAPI): 14%
MDA-MB-231 cells [8]
  apoptotic cells (Annexin V/PI): about 31.63%
Bcl-2−/−MEF cells [9]
  increase in mito-ROS relative to regular MEF cells: smaller increase
Nur77−/−HeLa cells [10]
  apoptotic effect (Annexin V/PI staining): 3.25%
Nur77−/− HeLa cells [11]
  increase in mito-ROS relative to regular HeLa cells: smaller increase
HCT116 cells; 0.5 μM, Western blotting
  PARP cleavage: effectively induced PARP cleavage
HCT116 cells
  concentration inducing PARP cleavage (dose dependent study): submicromolar concentrations
